Reference: PubChem BioAssay AID328 (DTP/NCI, 2004)
“And” between values parts separate entries of the source, which are not always exact repeats. Equal entries are not always repeated. Toxic doses and inconclusive results are not listed.

System: BDF1 mice, P388 leukemia ip, median survival T/C
Experiment: NCI In Vivo Anticancer Drug Screen. Data for tumor model P388 Leukemia (intraperitoneal) in B6D2F1 (BDF1) mice
Conditions: endpoint: median survival time, higher = longer survival
Summary of the method: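 Survival ratio, drug arm over vehicle arm, in mice with a transplanted tumour.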

[1] = dose: 100.0 mg/kg/injection, schedule: Q01DX009 (ip), vehicle: saline
[2] = dose: 100.0 mg/kg/injection, schedule: Q04DX003 (ip), vehicle: saline
[3] = dose: 200.0 mg/kg/injection, schedule: Q01DX009 (ip), vehicle: saline
[4] = dose: 200.0 mg/kg/injection, schedule: Q04DX003 (ip), vehicle: saline
[5] = dose: 400.0 mg/kg/injection, schedule: Q04DX003 (ip), vehicle: saline
[6] = dose: 12.5 mg/kg/injection, schedule: Q01DX009 (ip), vehicle: saline with Tween-80
[7] = dose: 25.0 mg/kg/injection, schedule: Q01DX009 (ip), vehicle: saline with Tween-80
[8] = dose: 50.0 mg/kg/injection, schedule: Q01DX009 (ip), vehicle: saline with Tween-80
[9] = dose: 100.0 mg/kg/injection, schedule: Q01DX009 (ip), vehicle: saline with Tween-80
[10] = dose: 200.0 mg/kg/injection, schedule: Q01DX009 (ip), vehicle: saline with Tween-80
[11] = dose: 100.0 mg/kg/injection, schedule: Q04DX003 (ip), vehicle: saline with Tween-80
[12] = dose: 200.0 mg/kg/injection, schedule: Q04DX003 (ip), vehicle: saline with Tween-80
[13] = dose: 400.0 mg/kg/injection, schedule: Q04DX003 (ip), vehicle: saline with Tween-80
[14] = dose: 50.0 mg/kg/injection, schedule: Q04DX003 (ip), vehicle: saline with Tween-80

Question: What does the source list for CC(=O)[O][Pb]([CH2]CC(C)C)([CH2]CC(C)C)[CH2]CC(C)C?
Answer: T/C (dose: 0.19 mg/kg/injection, schedule: Q01DX009 (ip), vehicle: saline with Tween-80): 123 % of control; T/C (dose: 0.38 mg/kg/injection, schedule: Q01DX009 (ip), vehicle: Klucel (hydroxypropylcellulose) (HPC)): 94 % of control; T/C (dose: 0.38 mg/kg/injection, schedule: Q01DX009 (ip), vehicle: saline with Tween-80): 111 % of control; T/C (dose: 0.75 mg/kg/injection, schedule: Q01DX009 (ip), vehicle: Klucel (hydroxypropylcellulose) (HPC)): 105 % of control; T/C (dose: 0.75 mg/kg/injection, schedule: Q01DX009 (ip), vehicle: saline with Tween-80): 106 % of control

Question: CCCCSCC(N)C(=O)OC (centres undefined) was tested. Which T/C [1] did it give?
Answer: 103 % of control

Question: And the T/C [2]?
Answer: 100 % of control

Question: And the T/C [3]?
Answer: 111 % of control

Question: What about the T/C [4] of the same compound?
Answer: 104 % of control

Question: And the T/C (dose: 400.0 mg/kg/injection, schedule: Q01DX009 (ip), vehicle: saline)?
Answer: 106 % of control

Question: What about the T/C [5] of the same compound?
Answer: 109 % of control

Question: How did the T/C (dose: 6.25 mg/kg/injection, schedule: Q01DX009 (ip), vehicle: saline with Tween-80) turn out when CC1(C(Cl)(Cl)Cl)C=CC(=O)C=C1 was run?
Answer: 110 % of control

Question: And the T/C [6]?
Answer: 115 % of control

Question: And the T/C [7]?
Answer: 98 % of control

Question: And the T/C [8]?
Answer: 107 % of control

Question: With c1ccncc1 as the compound, how does the T/C [2] read?
Answer: 96 % of control

Question: And the T/C [4]?
Answer: 102 % of control

Question: And the T/C [5]?
Answer: 105 % of control

Question: How did the T/C [8] turn out when NC(=NCCCC(NC(=O)c1ccccc1)C(=O)O)NC(=O)c1ccccc1 (centres undefined) was run?
Answer: 103 % of control

Question: And the T/C [9]?
Answer: 120 % of control

Question: And the T/C [10]?
Answer: 118 % of control

Question: For COc1ccc(Cl)cc1NC1=CC(c2ccc(Cl)cc2)OC1=O (centres undefined), which T/C (dose: 100.0 mg/kg/injection, schedule: Q01DX001 (ip), vehicle: saline with Tween-80) is on record?
Answer: 100 % of control

Question: What about the T/C (dose: 200.0 mg/kg/injection, schedule: Q01DX001 (ip), vehicle: saline with Tween-80) of the same compound?
Answer: 100 % of control

Question: And the T/C (dose: 400.0 mg/kg/injection, schedule: Q01DX001 (ip), vehicle: saline with Tween-80)?
Answer: 95 % of control

Question: For CN(C)/C=N/n1cnc2c(ncn2C2OC(CO)C(O)C2O)c1=O (centres undefined), which T/C (dose: 50.0 mg/kg/injection, schedule: Q04DX003 (ip), vehicle: saline) is on record?
Answer: 108 % of control

Question: And the T/C [2]?
Answer: 108 % of control

Question: What about the T/C [4] of the same compound?
Answer: 111 % of control

Question: What about the T/C [5] of the same compound?
Answer: 101 % of control

Question: Which T/C [11] does the source give for Cc1ccc(NC(=O)COc2cc(Cl)c(Cl)cc2Cl)cc1C here?
Answer: 90 % of control

Question: And the T/C [12]?
Answer: 90 % of control

Question: And the T/C [13]?
Answer: 86 % of control

Question: Which results are given for C#CCn1cnc2c(Cl)ncnc21?
Answer: T/C (dose: 50.0 mg/kg/injection, schedule: Q01DX009 (ip), vehicle: other): 118 % of control; T/C (dose: 100.0 mg/kg/injection, schedule: Q01DX009 (ip), vehicle: other): 100 % of control; T/C [2]: 108 % of control; T/C [4]: 104 % of control; T/C [5]: 95 % of control

Question: What does the source list for C/C=C1/C[C@@H](C)[C@@](C)(O)C(=O)OCC2=CCN3CC[C@@H](OC1=O)[C@@H]23?
Answer: T/C (dose: 7.5 mg/kg/injection, schedule: Q01DX010 (ip), vehicle: steriod suspending solution): 109 % of control; T/C (dose: 15.0 mg/kg/injection, schedule: Q01DX010 (ip), vehicle: steriod suspending solution): 100 % of control; T/C (dose: 30.0 mg/kg/injection, schedule: Q01DX010 (ip), vehicle: steriod suspending solution): 100 % of control; T/C (dose: 60.0 mg/kg/injection, schedule: Q01DX010 (ip), vehicle: steriod suspending solution): 95 % of control and 109 % of control

Question: How did the T/C [10] turn out when Cc1n[nH]c2ccc([N+](=O)[O-])cc2c1=O was run?
Answer: 87 % of control

Question: With CN(C)c1ccc(C=O)cc1[N+](=O)[O-] as the compound, how does the T/C (dose: 50.0 mg/kg/injection, schedule: Q04DX003 (ip), vehicle: Klucel (hydroxypropylcellulose) (HPC)) read?
Answer: 113 % of control

Question: And the T/C (dose: 100.0 mg/kg/injection, schedule: Q04DX003 (ip), vehicle: Klucel (hydroxypropylcellulose) (HPC))?
Answer: 113 % of control

Question: And the T/C (dose: 200.0 mg/kg/injection, schedule: Q04DX003 (ip), vehicle: Klucel (hydroxypropylcellulose) (HPC))?
Answer: 104 % of control

Question: Which results are given for CCCCOB(CCl)OCCCC?
Answer: T/C (dose: 6.25 mg/kg/injection, schedule: Q01DX001 (ip), vehicle: saline): 104 % of control; T/C (dose: 12.5 mg/kg/injection, schedule: Q01DX001 (ip), vehicle: saline): 100 % of control; T/C (dose: 25.0 mg/kg/injection, schedule: Q01DX001 (ip), vehicle: saline): 100 % of control

Question: What does the source list for O=C(O)c1ccc(C(=O)O)c2c(C(=O)O)ccc(C(=O)O)c12?
Answer: T/C [14]: 95 % of control; T/C [11]: 95 % of control; T/C [12]: 90 % of control

Question: How did the T/C (dose: 2.06 mg/kg/injection, schedule: Q01DX009 (ip), vehicle: saline) turn out when CNNC(=O)NC was run?
Answer: 108 % of control

Question: And the T/C (dose: 4.12 mg/kg/injection, schedule: Q01DX009 (ip), vehicle: saline)?
Answer: 116 % of control

Question: And the T/C (dose: 8.25 mg/kg/injection, schedule: Q01DX009 (ip), vehicle: saline)?
Answer: 91 % of control

Question: And the T/C (dose: 35.0 mg/kg/injection, schedule: Q04DX003 (ip), vehicle: saline)?
Answer: 109 % of control

Question: And the T/C (dose: 55.0 mg/kg/injection, schedule: Q04DX003 (ip), vehicle: saline)?
Answer: 113 % of control

Question: And the T/C (dose: 80.0 mg/kg/injection, schedule: Q04DX003 (ip), vehicle: saline)?
Answer: 118 % of control

Question: And the T/C (dose: 120.0 mg/kg/injection, schedule: Q04DX003 (ip), vehicle: saline)?
Answer: 109 % of control

Question: And the T/C (dose: 180.0 mg/kg/injection, schedule: Q04DX003 (ip), vehicle: saline)?
Answer: 113 % of control

Question: What about the T/C (dose: 270.0 mg/kg/injection, schedule: Q04DX003 (ip), vehicle: saline) of the same compound?
Answer: 109 % of control

Question: With N=c1scc(CC(=O)O)n1N as the compound, how does the T/C (dose: 50.0 mg/kg/injection, schedule: Q01DX009 (ip), vehicle: saline) read?
Answer: 92 % of control

Question: What about the T/C [1] of the same compound?
Answer: 108 % of control

Question: And the T/C [3]?
Answer: 92 % of control

Question: Brc1ccc2c(c1)-c1ccccc1C1=NCCN12 was tested. Which T/C (dose: 2.5 mg/kg/injection, schedule: Q01DX009 (ip), vehicle: Klucel (hydroxypropylcellulose) (HPC)) did it give?
Answer: 95 % of control

Question: What about the T/C (dose: 5.0 mg/kg/injection, schedule: Q01DX009 (ip), vehicle: Klucel (hydroxypropylcellulose) (HPC)) of the same compound?
Answer: 104 % of control

Question: And the T/C (dose: 10.0 mg/kg/injection, schedule: Q01DX009 (ip), vehicle: Klucel (hydroxypropylcellulose) (HPC))?
Answer: 100 % of control

Question: What about the T/C (dose: 20.0 mg/kg/injection, schedule: Q01DX009 (ip), vehicle: Klucel (hydroxypropylcellulose) (HPC)) of the same compound?
Answer: 95 % of control

Question: How did the T/C [8] turn out when COc1cccc(/C=N/NC(=O)c2cc(C)nc3ccc(Br)cc23)c1O was run?
Answer: 103 % of control

Question: What about the T/C [9] of the same compound?
Answer: 103 % of control

Question: And the T/C [10]?
Answer: 100 % of control

Question: Which T/C [6] does the source give for CC1NC(=O)OC1C(C)(C)C (centres undefined) here?
Answer: 88 % of control

Question: And the T/C [7]?
Answer: 98 % of control

Question: What about the T/C [8] of the same compound?
Answer: 86 % of control and 95 % of control

Question: With CN(C)N=Nc1ccc(-c2ccccc2)cc1 as the compound, how does the T/C [7] read?
Answer: 99 % of control

Question: What does the source list for CC1=Nc2ccccc2/C1=C\c1c(C)[nH]c2ccccc12?
Answer: T/C (dose: 5.5 mg/kg/injection, schedule: Q01DX009 (ip), vehicle: Klucel (hydroxypropylcellulose) (HPC)): 109 % of control; T/C (dose: 8.2 mg/kg/injection, schedule: Q01DX009 (ip), vehicle: Klucel (hydroxypropylcellulose) (HPC)): 118 % of control; T/C (dose: 12.5 mg/kg/injection, schedule: Q01DX009 (ip), vehicle: Klucel (hydroxypropylcellulose) (HPC)): 161 % of control; T/C (dose: 33.0 mg/kg/injection, schedule: Q01DX009 (ip), vehicle: Klucel (hydroxypropylcellulose) (HPC)): 103 % of control and 109 % of control; T/C (dose: 75.0 mg/kg/injection, schedule: Q01DX009 (ip), vehicle: Klucel (hydroxypropylcellulose) (HPC)): 96 % of control and 113 % of control; T/C (dose: 200.0 mg/kg/injection, schedule: Q01DX009 (ip), vehicle: Klucel (hydroxypropylcellulose) (HPC)): 154 % of control

Question: What does the source list for O=C1c2ccccc2C(=O)N1CC(O)CCl (centres undefined)?
Answer: T/C [8]: 104 % of control; T/C [14]: 100 % of control; T/C [9]: 112 % of control; T/C [11]: 104 % of control; T/C [10]: 88 % of control; T/C [12]: 108 % of control

Question: For Cc1cc(-c2ccc(Br)cc2)[n+](C)n1C, which T/C [6] is on record?
Answer: 102 % of control

Question: What about the T/C [7] of the same compound?
Answer: 107 % of control

Question: And the T/C [8]?
Answer: 111 % of control

Question: What does the source list for OCCOc1cccc(OCCO)c1?
Answer: T/C [11]: 100 % of control; T/C [12]: 100 % of control; T/C [13]: 104 % of control

Question: O=C1CSC(=O)CS1 was tested. Which T/C [8] did it give?
Answer: 99 % of control

Question: And the T/C [9]?
Answer: 93 % of control

Question: With Cc1ccccc1-c1nc2c(N)nc(N)nc2nc1N as the compound, how does the T/C [9] read?
Answer: 122 % of control

Question: What about the T/C [10] of the same compound?
Answer: 163 % of control

Question: What about the T/C (dose: 264.0 mg/kg/injection, schedule: Q04DX003 (ip), vehicle: saline with Tween-80) of the same compound?
Answer: 100 % of control and 104 % of control

Question: What about the T/C (dose: 400.0 mg/kg/injection, schedule: Q01DX009 (ip), vehicle: saline with Tween-80) of the same compound?
Answer: 200 % of control

Question: And the T/C [13]?
Answer: 118 % of control

Question: What about the T/C (dose: 600.0 mg/kg/injection, schedule: Q04DX003 (ip), vehicle: saline with Tween-80) of the same compound?
Answer: 118 % of control
